From US11780868B1, “Homoleptic metal coordination complexes as antifungal agents” (King Abdulaziz University, priority 2023, dated 2023)

Assays:
horse red blood cells = test: Haemolytic activity; format: cell-based; conditions: horse RBC
Description: To determine the cytotoxicity of C1, horse red blood cells (H-RBC; NHLS, Johannesburg, South Africa) were used. The horse blood was centrifuged, and the cell pellet was secured and washed three times with cold PBS. The final pellet was dissolved in cold PBS to make a 10% H-RBC solution. From this solution, 15 mL of 1% H-RBC solution was again prepared with the help of PBS. Then, 1 mL was aliquoted and added to various concentrations (0.5×MIC, 1×MIC, 2×MIC and 4×MIC) of C1 in 2 mL Eppendorf tubes. The negative control consisted of the RBC solution mixed with PBS; while the positive control consisted of RBC mixed with 1% Triton X-100. The samples were incubated for 4 h at 37° C. Following incubation, the samples were centrifuged at 2000 rpm for 10 minutes and supernatant (200 μL) was transferred to a flat-bottomed 96-well microtiter plate and the absorbance was measured at 450 nm using a SpectraMax ID3 Multimode Plate Reader (Molecular Devices, LLC., USA). The percentage of haemolysis was calculated by using the following equation: […]

[1] = test system: Flz susceptible strains of C. albicans; test: Broth microdilution MIC/MFC, range over strains; format: cell-based, Candida albicans
Description: In this work, nine strains of C. albicans procured from Charlotte Maxeke Johannesburg Academic Hospital under ethical clearance number M000402 were employed (Table 1). All the C. albicans strains were preserved at −70° C. deep freezer in 50% (v/v) anhydrous glycerol (Sigma-Aldrich St. Louis, MO, U.S.A.). For conducting experiments, cultures were revived in Sabouraud Dextrose broth (SDB; Merck, Germany) at 37° C. and 120 rpm for 24 h. Additionally, the RPMI 1640 medium and MOPS (Sigma-Aldrich, USA) were prepared as described by the Clinical and Laboratory Standards Institute (CLSI).
The activity of C1 against Candida species (n=9) was first estimated in terms of minimum inhibitory concentration (MIC) and minimum fungicidal concentration (MFC). […] Briefly, stock solutions of Flz (used as reference; Sigma-Aldrich St. Louis, MO, U.S.A.) and the synthesized compound was prepared in 1% dimethyl sulfoxide (DMSO; Sigma-Aldrich St. Louis, MO, U.S.A.) and the test concentrations were formulated in RPMI 1640-MOPS medium. […] Growth was quantified by reading the optical density at 620 nm in a UV-1800 SHIMADZU spectrophotometer (Shimadzu Corporation, Japan). The MIC was determined as the lowest concentration that inhibited the growth of Candida strains. […]

cytochrome c oxidase = test: Cytochrome c oxidase activity assay; format: cell-based
Description: To examine the effect of C1 on the induction of cellular apoptosis in C. albicans cells, crucial apoptotic markers were observed. For this purpose, C. albicans 4251 and C. albicans 5112 cells were subjected to protoplast preparation by utilizing a method described previously by Srivastava et al. in 2020 through their research study. Briefly, cells were grown overnight and were exposed for 4 h with different concentrations of C1 (0.5×MIC and 1×MIC) and H2O2 (positive control) whereas, untreated cells were used as a negative control. Later on, the cells were washed and incubated for 10 min at room temperature in protoplast buffer-1 (1M sorbitol, 0.05M tris base, 0.01M MgCl2, 0.03M DTT, pH 7.4). The cells were spun at 1500 rpm for 5 min and the pellet was resuspended in protoplast buffer-2 (1M sorbitol, 0.05M tris base, 0.01M MgCl2, 0.001M DTT, pH 7.4) supplemented with lyticase enzyme (1 μg/mL) and incubated for 1 h at room temperature. Afterwards, the cell suspension was again centrifuged, and the pellet was resuspended and incubated for 20 min at room temperature in protoplast buffer-3 (1M sorbitol, 0.05M tris base, 0.01M MgCl2, pH 7.4). A final washing (1500 rpm for 5 min) was given to the cells and the pellet consisting of C. albicans protoplasts was resuspended in fresh PBS and was stored at 4° C. until further use.
The role of C1 in the modulating cytochrome c oxidase activity in C. albicans was investigated. The mitochondria from C. albicans 4251 and C. albicans 5112 were isolated using Yeast Mitochondria Isolation Kit—MITOISO3 (Sigma-Aldrich St. Louis, MO, U.S.A.) and then the Cytochrome c oxidase assay kit (ScienCell, Cat. No. 8278, CA, USA) was used to detect the cytochrome c oxidase activity in the cells following the manufacturer's instructions. Briefly, the C. albicans protoplasts were homogenized and the homogenate was resuspended and centrifuged in storage buffer (1×, 1 mL) at 6,500×g at 4° C. (10 min). The supernatant was discarded and resuspended in 200 μL of storage buffer (1×). The TCA Lowry method was utilized for determining the protein concentration present in the sample. Later on, the estimation of cytochrome c oxidase activity was done by preparing an assay mixture (Assay Buffer, 940 μL; n-dodecyl β-D-maltoside solution, 10 μL; mitochondrial protein, 2 μg) in a cuvette and then adding cytochrome c substrate solution (50 μL, provided in the kit) to it. Any change in absorbance was measured on a kinetic program (550 nm; every 30 seconds with an interval of 5 seconds) by using a spectrophotometer (UV-1800, Shimadzu Corporation, Japan).

Brc1ccc([O][Co][O]c2ccc(Br)cc2C=Nc2ccc3c(c2)OCCO3)c(C=Nc2ccc3c(c2)OCCO3)c1 [Complex C1, [Co(L)2]]
haemolytic activity (in words) (horse red blood cells): considerably less haemolytic activity | haemolytic activity (horse red blood cells; 4×MIC, 4 h, 37° C.): 10% | MIC value range [1]: 1.22 to 4.88 µg/mL | average percent decrease in cytochrome c oxidase activity (cytochrome c oxidase; Flz resistant strain (C. albicans 5112), 0.5×MIC): 14.2% | average percent decrease in cytochrome c oxidase activity (cytochrome c oxidase; Flz resistant strain (C. albicans 5112), 1×MIC): 47.53% | average percent decrease in cytochrome c oxidase activity (cytochrome c oxidase; Flz sensitive strain (C. albicans 4251), 0.5×MIC): 22.61% | average percent decrease in cytochrome c oxidase activity (cytochrome c oxidase; Flz sensitive strain (C. albicans 4251), 1×MIC): 51.3%
